{"source": "patent US6964959B2", "about": "“Use of a methylol-containing compound to treat tumors” (Carter Wallace, Inc., priority 1999, dated 2005)", "key": {"NIH-3T3": {"system": "NIH-3T3", "experiment": "Flow cytometry cell cycle distribution / DNA debris, NIH-3T3", "format": "cell-based, murine", "protocol": "Three×10^5 cells were seeded in plastic tissue culture flasks. […] Control cultures received an appropriate volume of Kollidine-17P. […] The percentage of DNA debris in the sub-G0/G1 region was assessed using cytofluorometric techniques. Each bar represents the mean (±SE) of three determinations. **p≦0.01, ***p≦0.001, ****p≦0.0001\nFor flow cytometry studies, 1×10^6 PA-1, SKOV-3, or NIH-3T3 cells were incubated for 24 h in appropriate media containing serum. […] Control cultures for each cell line were incubated in media containing 40 μl of 5% Kollidon 17PF alone. […] For example, harvested cells were resuspended in ice cold phosphate-buffered saline at a final cell density of 2×10^6 cells/ml. The cells then were stained for 30 min at room temperature in the dark with a solution of 0.05 mg/ml propidium iodide, 0.6% Igepal, and 1% sodium citrate. Flow cytometry was performed by FACScan (Becton Dickinson, Plymouth, England) using the ModFit LT program (Becton Dickinson). Statistical analysis was performed with the Kruskal Wallis non-parametric ANOVA test followed by Dunn's multiple comparisons test using Instat.\nThree×10^5 cells were seeded in plastic tissue culture flasks. […] Control cultures received an appropriate volume of Kollidine-17P. After an additional 48 h, cells were harvested, stained with propidium iodide, and cell cycle distribution assessed using cytofluorometric techniques. Each value represents the percentage of cells in the noted cell cycle phases and is the mean±SEM of three determinations."}, "PARP": {"system": "PARP", "experiment": "Western-blot analysis of PARP cleavage, SKOV-3 cells", "format": "cell-based, human", "conditions": "24 h exposure to 50 or 100 μM", "protocol": "Two×10^6 cells were seeded in 150 cm^2 tissue culture flasks. […] After an additional twenty-four hours, cells were harvested, cell number determined, and aliquots derived from equal cell numbers generated from each exposure condition. Total proteins from these whole cell lysates were separated by SDS-PAGE and transferred to nitrocellulose filters. Filters were then immunoblotted to detect intact PARP protein and cleavage fragments by using the clone C-2-10 mouse monoclonal anti-PARP antibody (Zymed Laboratories, San Francisco, Calif.). The resulting protein-antibody complexes were visualized by chemiluminescence techniques.\nWestern-blot analysis was used to assess of PARP cleavage. Two×10^6 cells were seeded into separate 75 cm^2 tissue culture flasks containing 20 ml of tissue culture media plus serum. […] Twenty-four hours after the addition of Taurolidine, cells were harvested, cell number determined, and aliquots containing an equal cell number were generated from each exposure condition. Total proteins from whole cell lysates generated from these aliquots were separated by SDS-PAGE and electrotransferred to nitrocellulose filters. Filters were then processed to detect intact PARP protein and cleavage fragments by using the clone C-2-10 mouse monoclonal anti-PARP antibody (Zymed Laboratories, San Francisco, Calif.). […]"}}, "note": "Entries after “also recorded” stand apart in the source; their conditions may differ."}
{"compound": "O=S1(=O)CCN(CN2CCS(=O)(=O)NC2)CN1", "note": "[Taurolidine, Bis-(1,1-dioxoperhydro-1,2,4-thiadiazinyl-4)methane]", "values": [{"measurement": "cell cycle kinetics and distribution", "setting": "NIH-3T3; 3T3, 24-hour exposure", "value": "significantly reduced the percentage of cells in both the S- and G2/M-phases"}, {"measurement": "effect on cell cycle distribution", "setting": "NIH-3T3; NIH-3T3, 48 h exposure", "value": "increased the percentage of cells in S-phase, decreased the percentage of cells in G0/G1; also recorded: decreased the percentage of cells in G0/G1 and increased the percentage of cells in S"}, {"measurement": "DNA debris in the sub-G0/G1 region", "setting": "NIH-3T3; NIH-3T3, 48 h exposure, 25-100 μM", "value": "did not increase DNA debris; also recorded: did not significantly affect the appearance of DNA debris"}, {"measurement": "PARP cleavage", "setting": "PARP", "value": "induced PARP cleavage; also recorded: resulted in PARP cleavage"}]}
